Laboratory results reported in PubChem BioAssay AID330 (DTP/NCI, 2004).
Several values for one entry are separate records, joined by “and”; a condition that tells them apart may be missing. Equal entries are not always repeated. Toxic doses and inconclusive results are not listed. How the source made its calls: active means survival T/C of 150% or more; inactive means T/C below 125% in these data.

System: P388 leukemia ip, CD2F1 mice, survival T/C
Experiment: NCI In Vivo Anticancer Drug Screen. Data for tumor model P388 Leukemia (intraperitoneal) in CD2F1 (CDF1) mice
Settings: endpoint: median survival time, higher = longer survival
Method in brief: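 Mice carrying the transplanted tumor received test compound or vehicle. Survival was recorded in each group, and the value is the treated-group measurement divided by that of the vehicle-treated control group.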

[1] = dose: 200.0 mg/kg/injection, schedule: Q04DX003 (ip), vehicle: saline with Tween-80
[2] = dose: 50.0 mg/kg/injection, schedule: Q01DX005 (ip), vehicle: saline
[3] = dose: 50.0 mg/kg/injection, schedule: Q01DX005 (ip), vehicle: saline with Tween-80
[4] = dose: 100.0 mg/kg/injection, schedule: Q01DX005 (ip), vehicle: saline
[5] = dose: 200.0 mg/kg/injection, schedule: Q01DX005 (ip), vehicle: saline

Measured: T/C

O=[N+]([O-])c1ccc(N2CCN(CCO)CC2)c2c1no[n+]2[O-]
inactive: dose: 3.75 mg/kg/injection, schedule: Q01DX009 (ip), vehicle: saline 98 % of control and 100 % of control and 86 % of control | dose: 7.5 mg/kg/injection, schedule: Q01DX009 (ip), vehicle: saline 100 % of control and 97 % of control | dose: 15.0 mg/kg/injection, schedule: Q01DX009 (ip), vehicle: saline 103 % of control (2×) and 90 % of control | dose: 30.0 mg/kg/injection, schedule: Q01DX009 (ip), vehicle: saline 100 % of control and 101 % of control and 95 % of control | dose: 50.0 mg/kg/injection, schedule: Q01DX009 (ip), vehicle: suspension in saline 109 % of control

ClC(Cl)(Cl)C(Cl)(Cl)c1ccc(C(Cl)(Cl)C(Cl)(Cl)Cl)cc1
inactive: dose: 132.0 mg/kg/injection, schedule: Q04DX003 (ip), vehicle: saline with Tween-80 100 % of control | [1] 100 % of control | dose: 300.0 mg/kg/injection, schedule: Q04DX003 (ip), vehicle: saline with Tween-80 100 % of control

O=C1c2ccccc2C(=O)c2c(-c3ccc(Cl)cc3)noc21
inactive: dose: 50.0 mg/kg/injection, schedule: Q01DX005 (ip), vehicle: Klucel (hydroxypropylcellulose) (HPC) 94 % of control | dose: 100.0 mg/kg/injection, schedule: Q01DX005 (ip), vehicle: Klucel (hydroxypropylcellulose) (HPC) 93 % of control | dose: 200.0 mg/kg/injection, schedule: Q01DX005 (ip), vehicle: Klucel (hydroxypropylcellulose) (HPC) 90 % of control

CCCCC1(C)OC(C)CC(C)O1 (stereo not given)
inactive: dose: 60.0 mg/kg/injection, schedule: Q01DX005 (ip), vehicle: saline 97 % of control | dose: 120.0 mg/kg/injection, schedule: Q01DX005 (ip), vehicle: saline 99 % of control | dose: 240.0 mg/kg/injection, schedule: Q01DX005 (ip), vehicle: saline 108 % of control

Cc1cc(C)c[n+](-c2nc3c([O-])n(C)c(=O)n(C)c-3n2)c1
inactive: dose: 100.0 mg/kg/injection, schedule: Q04DX003 (ip), vehicle: saline 94 % of control | dose: 200.0 mg/kg/injection, schedule: Q04DX003 (ip), vehicle: saline 98 % of control | dose: 400.0 mg/kg/injection, schedule: Q04DX003 (ip), vehicle: saline 103 % of control

CCN(CC)CCCC(C)NC(=O)Nc1cc(OC)cc2cccnc12 (stereo not given)
inactive: dose: 12.5 mg/kg/injection, schedule: Q01DX005 (ip), vehicle: saline 107 % of control | dose: 25.0 mg/kg/injection, schedule: Q01DX005 (ip), vehicle: saline 108 % of control | [2] 104 % of control and 106 % of control

OC1(C(O)(c2ccc(-c3ccccc3)cc2)c2ccc(-c3ccccc3)cc2)CC=CCC1 (stereo not given)
inactive: dose: 60.0 mg/kg/injection, schedule: Q01DX005 (ip), vehicle: saline with Tween-80 105 % of control | dose: 120.0 mg/kg/injection, schedule: Q01DX005 (ip), vehicle: saline with Tween-80 92 % of control | dose: 240.0 mg/kg/injection, schedule: Q01DX005 (ip), vehicle: saline with Tween-80 90 % of control

COc1ccc(S(=O)(=O)O)cc1-n1nc(C(=O)Nc2ccccc2)n[n+]1-c1cc(S(=O)(=O)[O-])ccc1OC
inactive: dose: 100.0 mg/kg/injection, schedule: Q01DX001 (ip), vehicle: suspension in saline 100 % of control | dose: 200.0 mg/kg/injection, schedule: Q01DX001 (ip), vehicle: suspension in saline 100 % of control | dose: 400.0 mg/kg/injection, schedule: Q01DX001 (ip), vehicle: suspension in saline 103 % of control

CCOc1c(Cc2ccccc2)c(=O)n2c3ccccc3n(CC)c2c1C#N
inactive: dose: 7.5 mg/kg/injection, schedule: Q01DX005 (ip), vehicle: saline with Tween-80 100 % of control | dose: 15.0 mg/kg/injection, schedule: Q01DX005 (ip), vehicle: saline with Tween-80 102 % of control | dose: 30.0 mg/kg/injection, schedule: Q01DX005 (ip), vehicle: saline with Tween-80 101 % of control

CCn1c(=O)c2c(N(C)C)snc2n(CC)c1=O
inactive: dose: 50.0 mg/kg/injection, schedule: Q01DX009 (ip), vehicle: saline 96 % of control | dose: 100.0 mg/kg/injection, schedule: Q01DX009 (ip), vehicle: saline 107 % of control | dose: 200.0 mg/kg/injection, schedule: Q01DX009 (ip), vehicle: saline 110 % of control

C=CC1(C)CC(O)C2C(C)C(=O)OC2C1C(=C)C (stereo not given)
inactive: dose: 100.0 mg/kg/injection, schedule: Q01DX009 (ip), vehicle: saline with Tween-80 100 % of control | dose: 200.0 mg/kg/injection, schedule: Q01DX009 (ip), vehicle: saline with Tween-80 100 % of control | dose: 400.0 mg/kg/injection, schedule: Q01DX009 (ip), vehicle: saline with Tween-80 100 % of control

COc1ccc(-c2cc(-c3ccccc3)nc(-c3cccc([N+](=O)[O-])c3)c2)cc1
inactive: dose: 50.0 mg/kg/injection, schedule: Q01DX009 (ip), vehicle: Klucel (hydroxypropylcellulose) (HPC) 100 % of control | dose: 100.0 mg/kg/injection, schedule: Q01DX009 (ip), vehicle: Klucel (hydroxypropylcellulose) (HPC) 124 % of control | dose: 200.0 mg/kg/injection, schedule: Q01DX009 (ip), vehicle: Klucel (hydroxypropylcellulose) (HPC) 97 % of control

Cc1ccnc(NN=O)c1
inactive: dose: 1.5 mg/kg/injection, schedule: Q01DX009 (ip), vehicle: water 109 % of control | dose: 1.56 mg/kg/injection, schedule: Q01DX009 (ip), vehicle: water 100 % of control | dose: 3.0 mg/kg/injection, schedule: Q01DX009 (ip), vehicle: water 109 % of control | dose: 3.12 mg/kg/injection, schedule: Q01DX009 (ip), vehicle: water 117 % of control | dose: 12.5 mg/kg/injection, schedule: Q01DX009 (ip), vehicle: water 87 % of control
active: dose: 6.25 mg/kg/injection, schedule: Q01DX009 (ip), vehicle: water 159 % of control

O=C1c2c(Cl)c(Cl)c(Cl)c(Cl)c2C(=O)N1c1ccccc1-c1ccccc1
inactive: dose: 87.5 mg/kg/injection, schedule: Q01DX009 (ip), vehicle: saline with Tween-80 97 % of control | dose: 175.0 mg/kg/injection, schedule: Q01DX009 (ip), vehicle: saline with Tween-80 97 % of control | dose: 350.0 mg/kg/injection, schedule: Q01DX009 (ip), vehicle: saline with Tween-80 97 % of control

O=c1[nH]c2cc(Cl)ccc2c(CCl)c1Cl
inactive: dose: 25.0 mg/kg/injection, schedule: Q01DX009 (ip), vehicle: saline with Tween-80 110 % of control | dose: 50.0 mg/kg/injection, schedule: Q01DX009 (ip), vehicle: saline with Tween-80 110 % of control

CC1CCCN(CC(O)CN2C[C@@H](C)N(CC(O)CN3CCCC(C)C3)[C@H](C)C2)C1 (stereo not given in full)
inactive: dose: 12.5 mg/kg/injection, schedule: Q01DX005 (ip), vehicle: saline with Tween-80 100 % of control | dose: 25.0 mg/kg/injection, schedule: Q01DX005 (ip), vehicle: saline with Tween-80 100 % of control | [3] 100 % of control and 112 % of control

O=C1C=C/C(=C\c2ccc(Cl)cc2)O1
inactive: dose: 100.0 mg/kg/injection, schedule: Q04DX002 (ip), vehicle: Klucel (hydroxypropylcellulose) (HPC) 99 % of control | dose: 200.0 mg/kg/injection, schedule: Q04DX002 (ip), vehicle: Klucel (hydroxypropylcellulose) (HPC) 107 % of control | dose: 400.0 mg/kg/injection, schedule: Q04DX002 (ip), vehicle: Klucel (hydroxypropylcellulose) (HPC) 96 % of control

Nc1ccc(C(=O)Oc2ccc([N+](=O)[O-])cc2)cc1
inactive: dose: 100.0 mg/kg/injection, schedule: Q04DX003 (ip), vehicle: saline with Tween-80 95 % of control | [1] 90 % of control

CC(C)[S][Pb]([c]1ccccc1)([c]1ccccc1)[c]1ccccc1
inactive: dose: 1.25 mg/kg/injection, schedule: Q01DX009 (ip), vehicle: gum acacia 116 % of control | dose: 2.5 mg/kg/injection, schedule: Q01DX009 (ip), vehicle: gum acacia 118 % of control | dose: 5.0 mg/kg/injection, schedule: Q01DX009 (ip), vehicle: gum acacia 111 % of control | dose: 6.25 mg/kg/injection, schedule: Q04DX003 (ip), vehicle: gum acacia 97 % of control | dose: 12.5 mg/kg/injection, schedule: Q04DX003 (ip), vehicle: gum acacia 104 % of control

CC(NC(=O)OCc1ccccc1)C(=O)NC(CCC(=O)O)C(=O)O (stereo not given)
inactive: [2] 97 % of control | [4] 101 % of control | [5] 106 % of control

Cc1cc(N=Nc2ccc(NC(=O)c3ccc(N)cc3)cc2C)ccc1N=Nc1ccc2cc(S(=O)(=O)O)cc(S(=O)(=O)O)c2c1
inactive: [3] 97 % of control | [2] 107 % of control | dose: 50.0 mg/kg/injection, schedule: Q01DX005 (ip), vehicle: suspension in saline 101 % of control | dose: 100.0 mg/kg/injection, schedule: Q01DX005 (ip), vehicle: saline with Tween-80 90 % of control | [4] 121 % of control | dose: 100.0 mg/kg/injection, schedule: Q01DX005 (ip), vehicle: suspension in saline 111 % of control | dose: 200.0 mg/kg/injection, schedule: Q01DX005 (ip), vehicle: saline with Tween-80 113 % of control | [5] 121 % of control | dose: 200.0 mg/kg/injection, schedule: Q01DX005 (ip), vehicle: suspension in saline 113 % of control | dose: 400.0 mg/kg/injection, schedule: Q01DX005 (ip), vehicle: saline with Tween-80 109 % of control
